Test results published in patent publication US9249096B2, “Pyrrolinone carboxamide compounds useful as endothelial lipase inhibitors” (Bristol-Myers Squibb Company, priority 2011, dated 2016).

The compounds below were run against endothelial lipase (EL) (Homo sapiens (Human), UniProt Q9Y5X9) (assay: Endothelial lipase (EL) enzymatic assay with fluorescent substrate A10070 in DMPG vesicles). Details: conditioned media from HT-1080 cells overexpressing endogenous EL; 20 min preincubation at 37° C.; read-out: HLE_EL_CRC IC50.
Chain of endothelial lipase (EL) (Q9Y5X9 21-500): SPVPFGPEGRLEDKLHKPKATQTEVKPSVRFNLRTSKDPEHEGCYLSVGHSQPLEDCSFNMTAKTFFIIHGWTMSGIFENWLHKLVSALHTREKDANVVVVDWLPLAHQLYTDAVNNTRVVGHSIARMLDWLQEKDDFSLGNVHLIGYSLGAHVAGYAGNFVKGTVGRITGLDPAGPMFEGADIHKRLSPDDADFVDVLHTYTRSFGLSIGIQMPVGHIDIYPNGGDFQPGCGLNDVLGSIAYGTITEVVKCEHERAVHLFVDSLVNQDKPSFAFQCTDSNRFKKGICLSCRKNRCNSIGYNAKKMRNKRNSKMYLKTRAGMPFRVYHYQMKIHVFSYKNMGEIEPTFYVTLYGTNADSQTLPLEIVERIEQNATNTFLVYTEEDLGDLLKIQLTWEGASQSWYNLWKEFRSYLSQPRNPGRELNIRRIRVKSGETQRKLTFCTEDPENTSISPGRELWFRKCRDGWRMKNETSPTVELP
Format: biochemical
Procedure: Endothelial lipase activity was measured using a fluorescent substrate, A10070, (Invitrogen, CA) doped into an artificial vesicle containing DMPG (Avanti Polar Lipids) as the excipient. Vesicles were prepared by combining 285 uL of 1 mM DMPG in a 1:1 mixture of MeOH and CHCl3 with 15 uL of 1 mM A10070 in a 1:1 mixture of MeOH and CHCl3. The mixture was dried under nitrogen and resuspended in 150 uL of 50 mM HEPES pH 8.0 buffer containing 100 mM NaCl and 0.2 mM EDTA. The sample was allowed to sit at rt for 15 min and then was sonicated 3×4 mins on ice with a Branson Sonicator using duty cycle 1. This preparation provides vesicles with a mole fraction of 0.05 for the FRET substrate.
The enzymatic assay was measured using white, opaque 96-well half area plates. Each well contained 60 uL of assay buffer (50 mM HEPES pH 8.0, 50 mM NaCl and 1 mM CaCl2) and 2 ul of a DMSO solution containing compound of interest. Conditioned media obtained from HT-1080 cells, which were transformed by RAGE technology (Athersys) to overexpress endogenous EL, was added and the reaction was allowed to incubate for 20 min at 37° C. with gentle agitation. The reaction was started by the addition of 20 uL of a 1:4 dilution of vesicles. The final total reaction volume was 100 uL. The reaction rates were measured on a Gemini plate reader with an excitation wavelength of 488 nm and a emission of 530 nm. Readings were taken every 20 seconds for 10 min with agitation between each reading. The slope of the linear portion of the readout was used to calculate the rate of the reaction.
The exemplified examples disclosed in the present invention were tested in the EL assay described above and found having EL inhibitory activity.

| IC50 [nM] | Structure (SMILES) |
| --- | --- |
| 3.25 | CCCCN1CC(C(=O)NCCCc2ccc(Cl)c(Cl)c2)=C(O)C1=O [Example 46, 1-butyl-N-(3-(3,4-dichlorophenyl)propyl)-4-hydroxy-5-oxo-2,5-dihydro-1H-pyrrole-3-carboxamide] |
| 5.52 | O=C(NCCCc1ccc(Cl)c(Cl)c1)C1=C(O)C(=O)N(Cc2ccc(F)cc2)C1 [Example 51, N-(3-(3,4-dichlorophenyl)propyl)-1-(4-fluorobenzyl)-4-hydroxy-5-oxo-2,5-dihydro-1H-pyrrole-3-carboxamide] |
| 2.93 | CC(C)CN1CC(C(=O)NCCCc2ccc(Cl)c(Cl)c2)=C(O)C1=O [Example 42, N-(3-(3,4-dichlorophenyl)propyl)-4-hydroxy-1-isobutyl-5-oxo-2,5-dihydro-1H-pyrrole-3-carboxamide] |
| 1.6 | CC(C)OCCN1CC(C(=O)NCCCc2ccc(Cl)c(Cl)c2)=C(O)C1=O [Example 65, N-(3-(3,4-dichlorophenyl)propyl)-4-hydroxy-1-(2-isopropoxyethyl)-5-oxo-2,5-dihydro-1H-pyrrole-3-carboxamide] |
| 5.24 | O=C(NCCCc1ccc(Cl)c(Cl)c1)C1=C(O)C(=O)N(CCc2ccccc2Cl)C1 [Example 53, 1-(2-chlorophenethyl)-N-(3-(3,4-dichlorophenyl)propyl)-4-hydroxy-5-oxo-2,5-dihydro-1H-pyrrole-3-carboxamide] |
| 3.65 | O=C(NCCCc1ccc(Cl)c(Cl)c1)C1=C(O)C(=O)N(Cc2ccccc2)C1 [Example 40, 1-benzyl-N-(3-(3,4-dichlorophenyl)propyl)-4-hydroxy-5-oxo-2,5-dihydro-1H-pyrrole-3-carboxamide] |
| 2.71 | CC(C)CCN1CC(C(=O)NCCCc2ccc(Cl)c(Cl)c2)=C(O)C1=O [Example 45, N-(3-(3,4-dichlorophenyl)propyl)-4-hydroxy-1-isopentyl-5-oxo-2,5-dihydro-1H-pyrrole-3-carboxamide] |
| 6.3 | CCOCCN1CC(C(=O)NCCCc2ccc(Cl)c(Cl)c2)=C(O)C1=O [Example 57, N-(3-(3,4-dichlorophenyl)propyl)-1-(2-ethoxyethyl)-4-hydroxy-5-oxo-2,5-dihydro-1H-pyrrole-3-carboxamide] |
| 5.64 | O=C(NCCCc1ccc(Cl)c(Cl)c1)C1=C(O)C(=O)N(Cc2cc(Cl)cc(Cl)c2)C1 [Example 60, 1-(3,5-dichlorobenzyl)-N-(3-(3,4-dichlorophenyl)propyl)-4-hydroxy-5-oxo-2,5-dihydro-1H-pyrrole-3-carboxamide] |
| 5.99 | O=C(NCCCc1ccc(Cl)c(Cl)c1)C1=C(O)C(=O)N(Cc2cccc(F)c2)C1 [Example 50, N-(3-(3,4-dichlorophenyl)propyl)-1-(3-fluorobenzyl)-4-hydroxy-5-oxo-2,5-dihydro-1H-pyrrole-3-carboxamide] |
| 3.22 | O=C(NCCCc1ccc(Cl)c(Cl)c1)C1=C(O)C(=O)N(CCc2ccccc2)C1 [Example 44, N-(3-(3,4-dichlorophenyl)propyl)-4-hydroxy-5-oxo-1-phenethyl-2,5-dihydro-1H-pyrrole-3-carboxamide] |
| 5.61 | O=C(NCCCc1ccc(Cl)c(Cl)c1)C1=C(O)C(=O)N(CCc2ccc(F)cc2)C1 [Example 64, N-(3-(3,4-dichlorophenyl)propyl)-1-(4-fluorophenethyl)-4-hydroxy-5-oxo-2,5-dihydro-1H-pyrrole-3-carboxamide] |
| 3.3 | O=C(NCCCc1ccc(Cl)c(Cl)c1)C1=C(O)C(=O)N(Cc2cccc(Cl)c2)C1 [Example 47, 1-(3-chlorobenzyl)-N-(3-(3,4-dichlorophenyl)propyl)-4-hydroxy-5-oxo-2,5-dihydro-1H-pyrrole-3-carboxamide] |

Continued, compound first:

| Structure (SMILES) | IC50 [nM] |
| --- | --- |
| CN1CC(C(=O)NCCc2ccccc2)=C(O)C1=O [Example 3, 4-hydroxy-1-methyl-5-oxo-N-phenethyl-2,5-dihydro-1H-pyrrole-3-carboxamide] | 2950 |
| CCN1CC(C(=O)NCCCc2cccc(OC)n2)=C(O)C1=O [Example 265, 1-ethyl-4-hydroxy-N-(3-(6-methoxypyridin-2-yl)propyl)-5-oxo-2,5-dihydro-1H-pyrrole-3-carboxamide] | 3460 |
| CN1C(=O)C(O)=C(C(=O)NCCCc2ccc(Cl)c(Cl)c2)C1CCc1ccccc1 (single isomer, unassigned; isomer a) [Example 195, N-(3-(3,4-dichlorophenyl)propyl)-4-hydroxy-1-methyl-5-oxo-2-phenethyl-2,5-dihydro-1H-pyrrole-3-carboxamide (isomer A)] | 523 |
| CC(CCc1ccc(Cl)c(Cl)c1)NC(=O)C1=C(O)C(=O)N(C)C1 (stereo not drawn) [Example 229, N-(4-(3,4-dichlorophenyl)butan-2-yl)-4-hydroxy-1-methyl-5-oxo-2,5-dihydro-1H-pyrrole-3-carboxamide] | 4550 |
| CC(C)(C)CCN1CC(C(=O)NCCCc2ccc(Cl)c(Cl)c2)=C(O)C1=O [Example 55, N-(3-(3,4-dichlorophenyl)propyl)-1-(3,3-dimethylbutyl)-4-hydroxy-5-oxo-2,5-dihydro-1H-pyrrole-3-carboxamide] | 5.8 |
| O=C(NCCCc1ccc(Cl)c(Cl)c1)C1=C(O)C(=O)N(C2CCC2)C1 [Example 39, 1-cyclobutyl-N-(3-(3,4-dichlorophenyl)propyl)-4-hydroxy-5-oxo-2,5-dihydro-1H-pyrrole-3-carboxamide] | 5.09 |
| CN1CC(C(=O)NCCCc2c(Cl)cccc2Cl)=C(O)C1=O [Example 208, N-(3-(2,6-dichlorophenyl)propyl)-4-hydroxy-1-methyl-5-oxo-2,5-dihydro-1H-pyrrole-3-carboxamide] | 384 |
| CN1CC(C(=O)NCCCc2ccccc2)=C(O)C1=O [Example 166, 4-hydroxy-1-methyl-5-oxo-N-(3-phenylpropyl)-2,5-dihydro-1H-pyrrole-3-carboxamide] | 6440 |
| CN1CC(C(=O)NC(CCc2ccc(Cl)c(Cl)c2)c2ccccc2)=C(O)C1=O (stereo not drawn) [Example 235, N-(3-(3,4-dichlorophenyl)-1-phenylpropyl)-4-hydroxy-1-methyl-5-oxo-2,5-dihydro-1H-pyrrole-3-carboxamide] | 3060 |
| CC(C)C(CCc1ccc(Cl)c(Cl)c1)NC(=O)C1=C(O)C(=O)N(C)C1 (stereo not drawn) [Example 230, N-(1-(3,4-dichlorophenyl)-4-methylpentan-3-yl)-4-hydroxy-1-methyl-5-oxo-2,5-dihydro-1H-pyrrole-3-carboxamide] | 9640 |
| CN1C(=O)C(O)=C(C(=O)NCCCc2ccc(Cl)c(Cl)c2)C1C(C)(C)C (stereo not drawn) [Example 17, 2-tert-butyl-N-(3-(3,4-dichlorophenyl)propyl)-4-hydroxy-1-methyl-5-oxo-2,5-dihydro-1H-pyrrole-3-carboxamide] | 430 |
| CN1CC(C(=O)NCCc2ccc(Cl)cc2)=C(O)C1=O [Example 5, N-(4-chlorophenethyl)-4-hydroxy-1-methyl-5-oxo-2,5-dihydro-1H-pyrrole-3-carboxamide] | 559 |
| Cc1ccc(CC2C(C(=O)NCCCc3ccc(Cl)c(Cl)c3)=C(O)C(=O)N2C)cc1 (stereo not drawn) [Example 30, N-(3-(3,4-dichlorophenyl)propyl)-4-hydroxy-1-methyl-2-(4-methylbenzyl)-5-oxo-2,5-dihydro-1H-pyrrole-3-carboxamide] | 584 |
| CN1CC(C(=O)NCCc2ccc(Cl)c(Cl)c2)=C(O)C1=O [Example 1, N-(3,4-dichlorophenethyl)-4-hydroxy-1-methyl-5-oxo-2,5-dihydro-1H-pyrrole-3-carboxamide] | 528 |
